Measured values published in patent publication EP0256909B1, “N,N-bis-(4-fluorophenyl) carbamoyl acetohydroxamic acid and pharmaceutical composition containing it” (priority 1986, dated 1988).

What was measured:
Type in all cases: in vivo
souris [1] = assay: Behavioural despair (forced immersion); settings: 32, 128, 512 mg/kg i.p., 2nd to 6th minute
Source text: Trente min après avoir reçu le CRL 41131, des lots de 6 souris (mâles, CD1, Charles River) sont placés dans un bécher rempli d'eau sur une hauteur de 6 cm. On note la durée totale d'immobilité entre la deuxième et la sixième minute suivant l'immersion.

souris [2] = assay: Four plates test; settings: mouse, 30 min after i.p. administration
Experimental: (§1) Le CRL 41131, en suspension dans une solution de gomme arabique à 5%, a été administré par voie intrapéritonéale sous un volume de 20 ml/kg chez la souris (mâle, NMRI, Evic Ceba) et de 5 ml/kg chez le rat (mâle, CD1, Sprague Dawley, Charles River).
Le test est pratiqué sur des lots de 10 souris, 30 min après l'administration de CRL 41131.

souris [3] = assay: Intergroup aggressiveness
Experimental: Après avoir séjourné pendant 3 semaines dans chacune des moitiés d'une cage séparées par une cloison opaque, des groupes de 3 souris reçoivent le CRL 41131. Trente minutes plus tard, les deux groupes d'une même cage sont réunis par retrait de la cloison et on note le nombre de combats qui surviennent en 10 min.

souris [4] = assay: Interaction with apomorphine, mouse; settings: compound i.p. 30 min before s.c. apomorphine 1 or 16 mg/kg
Experimental: as §1
Des lots de 6 souris reçoivent le CRL 41 131 30 min avant l'injection sous-cutanée d'apomorphine, à la dose de 1 ou 16 mg/kg. • a) Apomorphine 1 mg/kg • b) Apomorphine 16 ma/ka

O=C(CC(=O)N(c1ccc(F)cc1)c1ccc(F)cc1)NO [CRL 41131, acide N,N-bis-(4-fluorophényl) carbamoylacétohydroxamique]
durée de l'immobilité (souris [1]): diminue la durée de l'immobilité
nombre de passages punis (souris [2]): n'entraîne pas d'augmentation nette du nombre de passages punis
nombre de combats (souris [3]; 512 mg/kg i.p. (highest dose used), 30 min before, fights in 10 min): diminue nettement le nombre de combats
agressivité intergroupe des souris (souris [3]; 128 et 512 mg/kg, comparison section): diminution
action hypothermisante induite par l'apomorphine (souris [4]): ne s'oppose pas
comportements de verticalisation et de stéréotypies (souris [4]): ne sont pas modifiés
